The results in this text go back to patent US20240002393A1, “SUBSTITUTED BENZO[f][l ,2,4JTRIAZOL0[4,3-a][l ,4J[…] GABA A GAMMA! POSITIVE ALLOSTERIC MODULATORS” (Hoffmann-La Roche Inc., priority 2020, published 2024).

Where “and” joins values, the source holds several entries; their conditions need not be identical. Equal values may be shown once.

The target in experiment [1] is human GABAA α1β3γ2 receptor (Homo sapiens (Human), UniProt P14867+P18507). As to the kind of experiment: Radioligand binding assay, [3H]Flumazenil competition, γ2-containing GABAA subtypes. To be noted: HEK293F membranes, [3H]Flumazenil 1 nM, mean of two determinations; read-out: Ki h-GABAA α1β3γ2. How it is done: The affinity of compounds at GABAA γ2 subunit-containing receptors was measured by competition for [^3H]Flumazenil (81.1 Ci/mmol; Roche) binding to HEK293F cells expressing human (transiently transfected) receptors of composition α1β3γ2.
Harvested pellets from HEK293F cells expressing the different GABAA γ2 receptor subtypes were resuspended in Mannitol Buffer pH 7.2-7.4 and processed as described above for the cells expressing the GABAA γ1 subunit-containing receptors.
Assays were incubated to equilibrium for 1 hour at 4° C. and harvested onto GF/C uni-filters (Packard) by filtration using a Packard harvester and washing with ice-cold wash buffer (50 mM Tris; pH 7.5). After drying, filter-retained radioactivity was detected by liquid scintillation counting. Ki values were calculated using Exel-Fit (Microsoft) and are the means of two determinations.

The target in experiment [2] is human GABAA α2β2γ1 receptor (Homo sapiens (Human), UniProt P47869+Q8N1C3). As to the kind of experiment: Radioligand binding assay, [3H]RO7239181 competition, γ1-containing GABAA subtypes. Conditions: for Ki: HEK293F membranes, [3H]RO7239181 20-30 nM, mean of two determinations, read-out: Ki h-GABAA α2β2γ1; for γ2/γ1 Selectivity Ratio: Ki α1β3γ2 (nM)/Ki α2β2γ1 (nM); for LogSel: Log[Ki α1β3γ2 (nM)/Ki α2β2γ1 (nM)]. How it is done: (§1) The affinity of compounds at GABAA γ1 subunit-containing receptors was measured by competition for [^3H]RO7239181 (67.3 Ci/mmol; Roche) binding to membranes from HEK293F cells (ThermoFisher R79007) expressing human (transiently transfected) receptors of composition α5β2γ1, α2β2γ1, α1β2γ1.
(§2) Harvested pellets from HEK293F cells expressing the different GABAA receptor subtypes were resuspended in Mannitol Buffer pH 7.2-7.4 (Mannitol 0.29M, Triethylamine 10 mM, Acetic acid 10 mM, EDTA 1 mM plus protease inhibitors (20 tablets Complete, Roche Diagnostics Cat. No. 05 056 489 001 per liter)), washed two times and then resuspended at 1:10 to 1:15 dilution in the same buffer. Cell disruption was performed by stirring the suspension in a Parr vessel #4637 at 435 psi for 15 minutes, and then the suspensions were centrifuged at 1000×g for 15 minutes at 4° C. (Beckman Avanti J-HC; rotor JS)-4.2). The supernatant (S1) was transferred in a 21 Schott flask and the pellet (P1) was resuspended with Mannitol Buffer up to 175 ml. The resuspended pellet was transferred into a 250 ml Corning centrifugal beaker and centrifuged at 1500×g for 10 minutes at 4° C. (Beckman Avanti J-HC; rotor JS)-4.2). The supernatant (S1) was then transferred in the 21 Schott flask and the pellet was discarded. The supernatants (S1) were centrifuged in 500 ml Beckman polypropylene centrifugal beaker at 15,000×g for 30 minutes at 4° C. (Beckman Avanti J-20 XP; rotor JLA-10.500). The pellet (P2) was resuspended with Mannitol Buffer 1:1 and frozen at −80° C. The supernatant (S2) was centrifuged in 100 ml Beckman polypropylene centrifugal tubes at 48000×g for 50 minutes at […] (Beckman Avanti J-20 XP; rotor JA-18). The supernatant (S3) was discarded and the pellet (P3) was resuspended with 1:1 Mannitol Buffer. The P2 and P3 protein concentration was determined with the BIORAD Standard assay method with bovine serum albumin as standard and measured on the NANO-Drop 1000. The membrane suspension was aliquots (500 μl per tube) and stored at −80° C. until required.
(§3) Membrane homogenates were resuspended and polytronised (Polytron PT1200E Kinematica AG) in Potassium Phosphate 10 mM, KCl 100 mM binding buffer at pH 7.4 to a final assay concentration determined with a previous experiment.
(§4) Assays were incubated to equilibrium for 1 hour at 4° C. and then, membranes were filtered onto unifilter (96-well white microplate with bonded GF/C filters preincubated 20-50 minutes in 0.3% Polyethylenimine) with a Filtermate 196 harvester (Packard BioScience) and washed 4 times with cold Potassium Phosphate 10 mM pH 7.4, KCl 100 mM binding buffer. After drying, filter-retained radioactivity was detected by liquid scintillation counting. K, values were calculated using Excel-Fit (Microsoft) and are the means of two determinations.

Experiment [3] addresses human GABAA α1β2γ1 receptor (Homo sapiens (Human), UniProt P14867+Q8N1C3). The experiment is described as above. To be noted: HEK293F membranes, [3H]RO7239181 20-30 nM, mean of two determinations. How it is done: as §1, §2, §3, §4

On to `Cc1nnc2n1-c1ccc(C(F)F)c(Cl)c1C(c1c(F)cccc1F)=N[C@H]2C` [Example 99, (4S)-7-chloro-8-(difluoromethyl)-6-(2,6-difluorophenyl)-1,4-dimethyl-4H-[1,2,4]triazolo[4,3-a][1,4]benzodiazepine], for which, in experiment [1], the inhibitory constant (Ki) amounted to 2.02 µM. In experiment [2], the Ki is 0.0554 µM, the “γ2/γ1 Selectivity Ratio” value is given as 36.4 and the LogSel amounted to 1.56. In addition, in experiment [3], the affinity, expressed as Ki, was 0.0634 µM.

Take `COC[C@@H]1N=C(c2c(F)cccc2F)c2c(ccc(Br)c2Cl)-n2c(C)nnc21` [Example 100, (4R)-8-bromo-7-chloro-6-(2,6-difluorophenyl)-4-(methoxymethyl)-1-methyl-4H-[1,2,4]triazolo[4,3-a][1,4]benzodiazepine]: the Ki in experiment [1] is 0.288 µM. Besides, in experiment [2], the Ki came out at 0.0198 µM, the “γ2/γ1 Selectivity Ratio” value was 14.6 and the LogSel was determined as 1.16. The Ki in experiment [3] was determined as 0.034 µM.

With `C[C@@H]1N=C(c2ccccc2F)c2c(ccc(Br)c2Cl)-n2c(-c3cccnn3)nnc21` [Example 32, (4S)-8-bromo-7-chloro-6-(2-fluorophenyl)-4-methyl-1-pyridazin-3-yl-4H-[1,2,4]triazolo[4,3-a][1,4]benzodiazepine], the Ki worked out at 1.03 µM in experiment [1], 0.0105 µM in experiment [2] and 0.0333 µM in experiment [3]. In experiment [2], the “γ2/γ1 Selectivity Ratio” value was 98.2. In experiment [2], this molecule displayed a LogSel of 1.99.

On to `C[C@@H]1N=C(c2c(F)cccc2F)c2c(ccc(Cl)c2Cl)-n2c(-c3cccnn3)nnc21` [Example 56, (4S)-7,8-dichloro-6-(2,6-difluorophenyl)-4-methyl-1-pyridazin-3-yl-4H-[1,2,4]triazolo[4,3-a][1,4]benzodiazepine], for which, in experiment [1], the Ki amounted to 0.851 µM. For the same molecule, in experiment [2], the inhibition constant Ki amounted to 0.0046 µM, the “γ2/γ1 Selectivity Ratio” value was determined as 186.8 and the LogSel turned out to be 2.27. The affinity in experiment [3] corresponds to a Ki of 0.0038 µM.

In the case of `C[C@@H]1N=C(c2c(F)cccc2F)c2c(ccc(Cl)c2Br)-n2c(-c3cccnn3)nnc21` [Example 73, (4S)-7-bromo-8-chloro-6-(2,6-difluorophenyl)-4-methyl-1-(pyridazin-3-yl)-4H-benzo[f][1,2,4]triazolo[4,3-a][1,4]diazepine], the inhibition constant Ki in experiment [1] worked out at 0.768 µM. Also, in experiment [2], the Ki came out at 0.0088 µM, the “γ2/γ1 Selectivity Ratio” value is recorded as 87.5 and the LogSel came to 1.94. The Ki in experiment [3] turned out to be 0.0235 µM.

With `Cc1ccc(-c2nnc3n2-c2ccc(Cl)c(Cl)c2C(c2c(F)cccc2F)=N[C@H]3C)nn1` [Example 86, (4S)-7,8-dichloro-6-(2,6-difluorophenyl)-4-methyl-1-(6-methylpyridazin-3-yl)-4H-[1,2,4]triazolo[4,3-a][1,4]benzodiazepine], the inhibitory constant (Ki) in experiment [1] was determined as 0.86 µM; in experiment [2], 0.0044 µM; in experiment [3] it was 0.0059 µM. For the same molecule, the “γ2/γ1 Selectivity Ratio” value in experiment [2] is 195.1 and 195. In experiment [2], the LogSel was 2.29 and 2.3.

Regarding `C[C@@H]1N=C(c2ncccc2F)c2c(ccc(Cl)c2Cl)-n2c(-c3ccncn3)nnc21` [Example 66, (4S)-7,8-dichloro-6-(3-fluoro-2-pyridyl)-4-methyl-1-pyrimidin-4-yl-4H-[1,2,4]triazolo[4,3-a][1,4]benzodiazepine], the inhibition constant Ki in experiment [1] stood at 3.28 µM. Further, in experiment [2], the Ki worked out at 0.0978 µM, the “γ2/γ1 Selectivity Ratio” value stood at 33.5 and the LogSel was 1.53. In experiment [3], this molecule gave an inhibition constant (Ki) of 0.231 µM.

Take `C[C@@H]1N=C(c2c(F)cccc2F)c2c(ccc(Cl)c2Cl)-n2c(-c3cnn(C)c3)nnc21` [Example 53, (4S)-7,8-dichloro-6-(2,6-difluorophenyl)-4-methyl-1-(1-methylpyrazol-4-yl)-4H-[1,2,4]triazolo[4,3-a][1,4]benzodiazepine]: the Ki in experiment [1] is 0.246 µM. In experiment [2], the inhibition constant Ki is 0.003 µM, the “γ2/γ1 Selectivity Ratio” value came to 82.0 and the LogSel is given as 1.91. Further, the affinity in experiment [3], expressed as Ki, was 0.0144 µM.

With `Cc1nnc2n1-c1ccc(C(C)(F)F)c(Cl)c1C(c1c(F)cccc1F)=N[C@H]2C` [Example 93, (4S)-7-chloro-8-(1,1-difluoroethyl)-6-(2,6-difluorophenyl)-1,4-dimethyl-4H-[1,2,4]triazolo[4,3-a][1,4]benzodiazepine], in experiment [1], the Ki was 5.96 µM. Moreover, in experiment [2], the Ki is 0.0391 µM, the “γ2/γ1 Selectivity Ratio” value stood at 152.1 and the LogSel was determined as 2.18. In experiment [3], affinity was put at a Ki of 0.0851 µM.

As for `Cc1ccc(-c2nnc3n2-c2ccc(Cl)c(Br)c2C(c2c(F)cccc2F)=N[C@H]3C)nn1` [Example 88, (4S)-7-bromo-8-chloro-6-(2,6-difluorophenyl)-4-methyl-1-(6-methylpyridazin-3-yl)-4H-[1,2,4]triazolo[4,3-a][1,4]benzodiazepine], the Ki in experiment [1] was determined as 1.45 µM. Also, in experiment [2], the Ki worked out at 0.0109 µM, the “γ2/γ1 Selectivity Ratio” value is reported as 133.6 and the LogSel was found to be 2.13. In experiment [3], the Ki was 0.0345 µM.

As to `OC1N=C(c2c(F)cccc2F)c2c(ccc(Br)c2Cl)-n2cnnc21` (stereo not shown) [Example 31, 8-bromo-7-chloro-6-(2,6-difluorophenyl)-4H-[1,2,4]triazolo[4,3-a][1,4]benzodiazepin-4-ol], the Ki was found to be 0.707 µM in experiment [1], 0.041 µM in experiment [2] and 0.0397 µM in experiment [3]. Besides, the “γ2/γ1 Selectivity Ratio” value in experiment [2] came to 17.3. The LogSel in experiment [2] amounted to 1.24.

With `C[C@@H]1N=C(c2c(F)cccc2F)c2c(ccc(Cl)c2Cl)-n2c(-c3ccncn3)nnc21` [Example 52, (4S)-7,8-dichloro-6-(2,6-difluorophenyl)-4-methyl-1-pyrimidin-4-yl-4H-[1,2,4]triazolo[4,3-a][1,4]benzodiazepine], the inhibitory constant (Ki) in experiment [1] was determined as 0.638 µM; in experiment [2] it was 0.0057 µM; in experiment [3], 0.0102 µM. The “γ2/γ1 Selectivity Ratio” value in experiment [2] is listed as 112.4. The LogSel in experiment [2] turned out to be 2.05.

As to `C[C@@H]1N=C(c2ncccc2F)c2c(ccc(Br)c2Cl)-n2c(C3CC3)nnc21` [Example 83, (4S)-8-bromo-7-chloro-1-cyclopropyl-6-(3-fluoro-2-pyridyl)-4-methyl-4H-[1,2,4]triazolo[4,3-a][1,4]benzodiazepine], the Ki was 0.853 µM in experiment [1], 0.0232 µM in experiment [2] and 0.128 µM in experiment [3]. Besides, in experiment [2], the “γ2/γ1 Selectivity Ratio” value was found to be 36.8. The same molecule came in with a LogSel in experiment [2] of 1.57.

As for `C[C@@H]1N=C(c2c(F)cccc2F)c2c(ccc(C(F)(F)F)c2Cl)-n2c(CO)nnc21` [Example 103, [(4S)-7-chloro-6-(2,6-difluorophenyl)-4-methyl-8-(trifluoromethyl)-4H-[1,2,4]triazolo[4,3-a][1,4]benzodiazepin-1-yl]methanol], in experiment [1], the Ki turned out to be 3.38 µM. In experiment [2], the Ki came out at 0.0504 µM, the “γ2/γ1 Selectivity Ratio” value came to 67.0 and the LogSel is listed as 1.83. The molecule further showed a Ki in experiment [3] of 0.0498 µM.

In general, Ki refers to a dissociation constant, usually derived from enzyme kinetics or from competition with a known ligand.
